Type in all cases: cell-based
Experiment [1] concerns Aspergillus niger. In words: Minimal inhibitory concentration (MIC), gradient plate test, fungistasis. The settings on record: Mycophil-Agar, 72 hours at 30° C. From the text: (§1) Measuring the minimal inhibitory concentration (MIC) towards bacteria and fungi in the gradient plate test
(§2) The compounds of the formula (1) in suitable formulations (for example as solutions in dimethylsulphoxide) of certain concentrations are mixed with warm brain heart infusion agar (bacteria) and Mycophil-Agar (fungi). The liquid mixtures are poured over a solidified, wedge-shaped basic agar layer and likewise allowed to solidify.
(§3) The test organisms are then applied by means of a Pasteur pipette in lines at right angles to the gradient. After an incubation period of 24 hours at 37° C. (bacteria) and 72 hours at 30° C. (fungi) the length of the germs grown on the inoculation line is measured and expressed in parts per million of active substance.

The subject of experiment [2] is Trichophyton mentagrophytes. The experiment is described as above. The settings on record: Mycophil-Agar, 72 hours at 30° C.
From the text: as §1, §2, §3

In experiment [3] the test system is Staphylococcus aureus. The experiment in a line: Minimal inhibitory concentration (MIC), gradient plate test, bacteriostasis. The settings on record: brain heart infusion agar, 24 hours at 37° C.
From the text: as §1, §2, §3

The next experiment relates to Escherichia coli. Described as above. The settings on record: brain heart infusion agar, 24 hours at 37° C.
From the text: as §1, §2, §3

In experiment [4] the test system is Staphylococcus aureus. In words: Antibacterial properties of impregnated paper (agar plate, inhibitory zone and growth). The settings on record: paper with 1% of active substance, 24 hours at 37° C. From the text:
(§4) Crude paper, which consists of 90% of bleached sulphite cellulose and 10% of birch pulp, is impregnated in a sizing press with a 2.5% solution of the compound of the formula (11) in methanol+water 2:1 to a weight increase of 40%.
(§5) The dried paper contains 1% of active substance referred to its original weight.
To test its antibacterial properties round blanks of 10 mm diameter of the impregnated paper are placed on brain heart infusion agar plates previously inoculated with Staphylococcus aureus, and the plates are then incubated for 24 hours at 37° C.
(§6) The evaluation extends, on one hand, to the inhibitory zone (IZ in mm) around the paper blanks and, on the other hand, to the microscopically discernible growth (G in %) underneath and/or on the blanks: […]

Experiment [5] has as its system Aspergillus niger. In words: Activity of impregnated fabrics against fungi (agar plate, inhibitory zone and growth). As to the method:
(§7) Samples of C. 100 g each of cotton creton are impregnated on a padder with a 1% solution of one of the compounds of the formula (1) in isopropanol at 20° C and then squeezed to a weight increase of 100%.
(§8) Samples of 100 g each of wool cheviot were treated in an identical manner.
(§9) After having been dried at 30° to 40° C. the fabrics contain 1% of active substance referred to their own weight.
To test the activity against fungi round blanks of 25 mm diameter are placed on beerwort agar plates and then inoculated with Aspergillus niger, and the plates are then incubated for 72 hours at 30° C.
(§10) The evaluation extends, on one hand, to the inhibitory zones (IZ in mm) around the blanks and, on the other hand, on the growth (G in %) detected under a microscope underneath and/or on the fabric: […]

Experiment [6] deals with Staphylococcus aureus. The experiment in a line: Activity of impregnated fabrics against bacteria (agar plate, inhibitory zone and growth). The method, then:
as §7, §8, §9
To test the activity against bacteria round blanks of 10 mm diameter of the impregnated fabrics, one half of which untreated and the other after having been watered for 24 hours at 29° C., are placed on brain infusion agar plates previously inoculated with Staphylococcus aureus. The plates are then incubated for 24 hours at 37° C.
as §10

For experiment [7], the system named is Staphylococcus aureus. The experiment in a line: Minimal inhibitory concentration (MIC), dilution test, bacteriostasis. The settings on record: brain heart infusion broth, 48 hours at 37° C. As to the method:
(§11) Measuring the minimal inhibitory concentration (MIC) against bacteria and fungi in the dilution test
(§12) The minimal inhibitory concentration (MIC) is measured by a test derived from standardized methods which makes available an approximation to absolute minimal inhibitory values of an active substance.
(§13) A solution of 0.4% and 0.12% strength each in dimethylsulphoxide is prepared with the active substances. 0.25 ml of each of these solutions is added to 9.75 ml of sterile brain heart infusion broth (bacteria) and beerwort solution (fungi) respectively. By continual dilution to 10 times the volume two series are obtained which are combined and thereby converted into the following continuous dilution series:
(§14) 100, 30, 10, 3, 1 . . . part per million of active substance.
(§15) The solutions are inoculated with the bacterium Staphylococcus aureus and with fungi Aspergillus niger and Rhizopus nigricans respectively. Then incubation is performed for 48 hours at 37° C. (bacteriostasis) with Staphylococcue aureus and for 72 hours at 30° C. (fungistasis)with the fungi.

For experiment [8], the system named is Aspergillus niger. In words: Fungicidal activity of impregnated paper (agar plate, inhibitory zone and growth). The settings on record: paper with 1% of active substance, 72 hours at 30° C. The method, then:
as §4, §5
For testing its fungicidal activity round blanks of 25 mm diameter are placed on Mycophil-Agar plates and inoculated with Aspergillus niger, and the plates are incubated for 72 hours at 30° C.
as §6

The subject of experiment [9] is Aspergillus niger. In words: Minimal inhibitory concentration (MIC), dilution test, fungistasis. The settings on record: beerwort solution, 72 hours at 30° C. The method, then:
as §11, §12, §13, §14, §15

The subject of a further experiment is Rhizopus nigricans. The description is as above. The settings on record: beerwort solution, 72 hours at 30° C. As to the method: as §11, §12, §13, §14, §15
[10] abbreviates: cotton with 1% of active substance, untreated.
Where [11] appears, read: wool with 1% of active substance, untreated.

Consider 2 compounds from patent US4025556A, “Quaternary ammonium-hydroxyaryl compounds” (Ciba-Geigy AG, priority 1967, dated 1977).

Consider `CCCCCCCCCCCC[N+](CCO)(CCO)Cc1ccccc1.[O-]c1cccc2cccnc12` [L], for which the “Minimal inhibitory concentration, fungistasis, Aspergillus niger” value in the experiment with Aspergillus niger [1] was 6 ppm. Moreover, the “Minimal inhibitory concentration, fungistasis, Trichophyton mentagrophytes” value in experiment [2] amounted to 6 ppm. Besides, the “Minimal inhibitory concentration, bacteriostasis, Staphylococcus aureus” value in the experiment with Staphylococcus aureus [3] was found to be 3 ppm. Further, the “Minimal inhibitory concentration, bacteriostasis, Escherichia coli” value with Escherichia coli stood at 20 ppm.
On to “benzyl-bis-(2-hydroxyethyl)-dodecyl ammonium pentachlorophenolate”, for which the “inhibitory zone (IZ)” value worked out at 2.5 mm in the experiment on Staphylococcus aureus [4]; 7 mm with Aspergillus niger [5] (setting [10]); 4 mm in the experiment with Aspergillus niger [5] (cotton with 1% of active substance, watered); 0 mm in the experiment on Aspergillus niger [5] (setting [11]); 0 mm with Aspergillus niger [5] (wool with 1% of active substance, watered); 6 mm in the experiment on Staphylococcus aureus [6] (setting [10]). The “inhibitory zone (IZ)” value in the experiment with Staphylococcus aureus [6] (cotton with 1% of active substance, watered 24 hours at 29° C) is 5 mm; with Staphylococcus aureus [6] (setting [11]) it was 6 mm; in the experiment with Staphylococcus aureus [6] (wool with 1% of active substance, watered 24 hours at 29° C) it was 3 mm; in the experiment on Aspergillus niger [8] it was 1 mm. The “Inhibitory values in ppm in bacteriostasis, Staphylococcus aureus (MIC)” value with Staphylococcus aureus [7] is given as 10 ppm. Also, in the experiment with Aspergillus niger [9], the “Inhibitory values in ppm in fungistasis, Aspergillus niger (MIC)” value worked out at 10 ppm. Further, the “Inhibitory values in ppm in fungistasis, Rhizopus nigricans (MIC)” value with Rhizopus nigricans is reported as 10 ppm.
